Test results: patent US20240122180A1, “FUNGICIDAL HALOMETHYL KETONES AND HYDRATES AND THEIR MIXTURES” (FMC Corporation, priority 2020, published 2024)
Marks after values point to notes of the source that are not given here.

Tests used:
Assay type in all cases: in vivo
[1] = tested on: Zymoseptoria tritici (the causal agent of wheat leaf blotch); assay: Test D: preventive spray on wheat seedlings, disease rating (100 = 100% control; * 50 ppm, ** 10 ppm, *** 250 ppm); conditions: 100 = 100% disease control; for pest or weed control at 250 ppm / Test D disease control rating: 250 ppm test suspension; for pest or weed control at 250 ppm: wheat seedlings
Source text: (§1) General protocol for preparing test suspensions for Tests A-E: the test compounds were first dissolved in acetone in an amount equal to 3% of the final volume and then suspended at the desired concentration (in ppm) in acetone and purified water (50/50 mix by volume) containing 250 ppm of the surfactant […] (polyhydric alcohol esters). The resulting test suspensions were then used in Tests A-E.
The test solution was sprayed to the point of run-off on wheat seedlings. The following day the seedlings were inoculated with a spore suspension of Zymoseptoria tritici (the causal agent of wheat leaf blotch) and incubated in a saturated atmosphere at 24° C. for 48 h, and then moved to a growth chamber at 20° C. for 17 days, after which time disease ratings were made.
(§2) Results for Tests A-E are given in Table A. In the Table, a rating of 100 indicates 100% disease control and a rating of 0 indicates no disease control (relative to the controls). An asterisk “*” or a double asterisk “**” or a triple asterisk “***” next to the rating value indicates a 50 ppm, 10 ppm and 250 ppm test suspension was used, respectively. A dash (-) indicates the compound was not tested.

[2] = tested on: Puccinia recondita f. sp. tritici (the causal agent of wheat leaf rust); assay: Test B: preventive spray on wheat seedlings, disease rating (100 = 100% control; * 50 ppm, ** 10 ppm, *** 250 ppm); conditions: 100 = 100% disease control
Procedure, shortened: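 Preventive test: Puccinia recondita f. sp. tritici spores were inoculated one day after run-off spraying of wheat seedlings with test suspension (acetone/water 50/50, 250 ppm PEG400). After 24 h in saturated air and 6 days in a growth chamber, both at 20° C, control was scored 0–100 versus untreated plants.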

[3] = tested on: Blumeria graminis f. sp. tritici (the causal agent of wheat powdery mildew); assay: Test E: preventive spray on wheat seedlings, visual disease rating (100 = 100% control; * 50 ppm, ** 10 ppm, *** 250 ppm); conditions: 100 = 100% disease control; for pest or weed control at 250 ppm / Test E disease control rating: 250 ppm test suspension; for pest or weed control at 250 ppm: wheat seedlings
Source text: as §1
The test suspension was sprayed to the point of run-off on wheat seedlings. The following day the seedlings were inoculated with a spore dust of Blumeria graminis f. sp. tritici, (also known as Erysiphe graminis f. sp. tritici, the causal agent of wheat powdery mildew) and incubated in a growth chamber at 20° C. for 8 days, after which time visual disease ratings were made.
as §2

[4] = tested on: Phakopsora pachyrhizi (the causal agent of Asian soybean rust); assay: Test F: Compound 32 or 64 alone and in mixtures on soybean seedlings, observed (Obsd) and Colby expected (Exp) disease control; conditions: Phakopsora pachyrhizi; for pest or weed control at 0.303 ppm: Compound 64 0.303 ppm alone; for pest or weed control at 0.489 ppm: Compound 64 0.489 ppm alone
Source text: The general protocol for preparing test compositions for Test F was as follows: Compound 32, Compound 64, azoxystrobin, benzovindiflupyr, bixafen, chlorothalonil, cyproconazole, epoxiconazole, fenpropidin, fenpropimorph, fluindapyr, flutriafol, fluxapyroxad, metominostrobin, picoxystrobin, prothioconazole, pydiflumetofen, pyraclostrobin, tebuconazole and trifloxystrobin were obtained as unformulated, technical-grade materials. Copper hydroxide and mancozeb was obtained as a formulated product marketed under the trademarks KOCIDE 3000 and MANZATE, respectively. Unformulated materials were first dissolved in acetone and then suspended at the desired concentration (in ppm) in acetone and purified water (50/50 mix by volume) containing 250 ppm of the surfactant Trem® 014 (polyhydric alcohol esters). Formulated materials were dispersed in sufficient water to give the desired concentration, and neither organic solvent nor surfactant was added to the suspension. The resulting test mixtures were then used in Test F. The tests were run on four individual plants and the results reported as the mean average of the four plants.
The presence of a synergistic effect between two active ingredients was established with the aid of the Colby equation (see Colby, S. R. “Calculating Synergistic and Antagonistic Responses of Herbicide Combinations”, Weeds, (1967), 15, 20-22):
Using the method of Colby, the presence of a synergistic interaction between two active ingredients is established by first calculating the predicted activity, p, of the mixture based on activities of the two components applied alone. If p is lower than the experimentally established effect, synergism has occurred. In the equation above, A is the fungicidal activity in percentage control of one component applied alone at rate x. The B term is the fungicidal activity in percentage control of the second component applied at rate y. The equation estimates p, the expected fungicidal activity of the mixture of A at rate x with B at rate y if their effects are strictly additive and no interaction has occurred.
The test mixture was sprayed to the point of run-off on soybean seedlings. The following day the seedlings were inoculated with a spore suspension of Phakopsora pachyrhizi (the causal agent of Asian soybean rust) and incubated in a saturated atmosphere at 22° C. for 24 h and then moved to a growth chamber at 22° C. for 8 days, after which time visual disease ratings were made.
Results for Test F are given in Tables B-1 through I-1 for Compound 32 and Tables B-2 through I-2 for Compound 64. Each table corresponds to a set of evaluations performed together at the same time. In each table, a rating of 100 indicates 100% disease control and a rating of 0 indicates no disease control (relative to the controls). Columns labeled “Obsd” indicate the average of results observed from test run on four individual plants. Columns labeled “Exp” indicate the expected value for each treatment mixture using the Colby equation.

[5] = tested on: Uncinula necator (the causal agent of grape powdery mildew); assay: Test C: preventive spray on grape seedlings, disease rating (100 = 100% control; * 50 ppm, ** 10 ppm, *** 250 ppm); conditions: 100 = 100% disease control
Source text: as §1
The test solution was sprayed to the point of run-off on grape seedlings. The following day the seedlings were inoculated with a spore suspension of Uncinula necator (the causal agent of grape powdery mildew) and incubated in a growth chamber at 20° C. for 12 days, after which time disease ratings were made.
as §2

[6] = tested on: Phakopsora pachyrhizi (the causal agent of Asian soybean rust); assay: Test A: preventive spray on soybean seedlings, visual disease rating (100 = 100% control; * 50 ppm, ** 10 ppm, *** 250 ppm); conditions: 100 = 100% disease control
Procedure, shortened: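 Preventive test: one day after spraying compound (acetone/water suspension, 250 ppm PEG400), seedlings received rust spore inoculum, 24 h in saturated air then 8 days in growth chamber, both at 22 °C. Disease control scored visually, 100 = complete, 0 = none, relative to untreated controls.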

[7] = Puccinia recondita, 10 ppm test suspension, wheat seedlings
[8] = Erysiphe necator, 250 ppm test suspension, grape seedlings
[9] = Puccinia recondita, 10 ppm test suspension, 0 = no control
[10] = Erysiphe necator, 50 ppm test suspension, 0 = no control
[11] = Puccinia recondita, 50 ppm test suspension, 0 = no control
[12] = 250 ppm test suspension, 0 = no control
[13] = 50 ppm test suspension, 0 = no control
[14] = 10 ppm test suspension, 0 = no control

## CCOC(=O)c1cnn(Cc2ccc(O/C=C(\OCC)C(F)(F)F)cc2)c1 [Compound 64, ethyl 1-[[4-[[(1Z)-2-ethoxy-3,3,3-trifluoro-1-propen-1-yl]oxy]phenyl]methyl]-1H-pyrazole-4-carboxylate]
[1]; Zymoseptoria tritici
  pest or weed control at 250 ppm: 73%
[2]; Puccinia recondita, 250 ppm test suspension, wheat seedlings
  pest or weed control at 250 ppm: 99%
[3]; Blumeria graminis
  pest or weed control at 250 ppm: 99%
[4]; Table B-2
  pest or weed control at 0.303 ppm: 53%
  pest or weed control at 0.489 ppm: 68%
[4]; Table C-2
  pest or weed control at 0.303 ppm: 34%
  pest or weed control at 0.489 ppm: 63%
[4]; Table D-2
  pest or weed control at 0.303 ppm: 49%
  pest or weed control at 0.489 ppm: 63%
[4]; Table E-2
  pest or weed control at 0.303 ppm: 78%
  pest or weed control at 0.489 ppm: 77%
[4]; Table F-2
  pest or weed control at 0.303 ppm: 37%
  pest or weed control at 0.489 ppm: 68%
[4]; Table G-2
  pest or weed control at 0.303 ppm: 52%
  pest or weed control at 0.489 ppm: 50%
[4]; Table H-2
  pest or weed control at 0.303 ppm: 50%
  pest or weed control at 0.489 ppm: 70%
[4]; Table I-2
  pest or weed control at 0.303 ppm: 50%
  pest or weed control at 0.489 ppm: 81%

## CCCCOC(=O)c1cnn(Cc2ccc(O/C=C(\OCC)C(F)(F)F)cc2)c1 [Compound 218, butyl 1-[[4-[[(1Z)-2-ethoxy-3,3,3-trifluoro-1-propen-1-yl]oxy]phenyl]methyl]-1H-pyrazole-4-carboxylate]
[1]; Zymoseptoria tritici
  pest or weed control at 250 ppm: 53%
[2]; [7]
  pest or weed control at 10 ppm: 0%
[3]; Blumeria graminis
  pest or weed control at 250 ppm: 90%
[5]; [8]
  pest or weed control at 250 ppm: 75%

## CCO/C(=C\Oc1ccc(Cn2cc(C(=O)OCCCCl)cn2)cc1)C(F)(F)F [Compound 221, 3-chloropropyl 1-[[4-[[(1Z)-2-ethoxy-3,3,3-trifluoro-1-propen-1-yl]oxy]phenyl]methyl]-1H-pyrazole-4-carboxylate]
[1]; Zymoseptoria tritici
  pest or weed control at 250 ppm: 10%
[2]; [7]
  pest or weed control at 10 ppm: 0%
[3]; Blumeria graminis
  pest or weed control at 250 ppm: 95%
[5]; [8]
  pest or weed control at 250 ppm: 41%

## CCOC(=O)c1cnn(Cc2ccc(OCC3(C(F)(F)F)OCCO3)c(F)c2)c1 [Compound 263, ethyl 1-[[3-fluoro-4-[[2-(trifluoromethyl)-1,3-dioxolan-2-yl]methoxy]phenyl]methyl]-1H-pyrazole-4-carboxylate]
[2]; [9]
  pest or weed control at 10 ppm: 0%
[5]; [10]
  pest or weed control at 50 ppm: 100%

## CCOC(=O)c1cnn(Cc2cccc(O/C=C(\OCC)C(F)(F)F)c2)c1 [Compound 265, ethyl 1-[[3-[[(1Z)-2-ethoxy-3,3,3-trifluoro-1-propen-1-yl]oxy]phenyl]methyl]-1H-pyrazole-4-carboxylate]
[2]; [11]
  pest or weed control at 50 ppm: 0%
[5]; [10]
  pest or weed control at 50 ppm: 98%

## CCOC(=O)c1cnn(COc2ccc(O/C=C(\OCC)C(F)(F)F)cc2)c1 [Compound 364, ethyl 1-[[4-[[(1Z)-2-ethoxy-3,3,3-trifluoro-1-propen-1-yl]oxy]phenoxy]methyl]-1H-pyrazole-4-carboxylate]
[1]; Zymoseptoria tritici, 50 ppm test suspension, 0 = no control
  pest or weed control at 50 ppm: 0%
[2]; [11]
  pest or weed control at 50 ppm: 0%
[3]; Blumeria graminis, 50 ppm test suspension, 0 = no control
  pest or weed control at 50 ppm: 56%
[5]; [10]
  pest or weed control at 50 ppm: 100%

## CCOC(=O)c1cnn(Cc2ccc(OCC(O)(O)C(F)(F)F)c(F)c2F)c1 [Compound 431]
[1]; 0 = no control
  Test D disease control rating: 93%
[3]; 0 = no control
  Test E disease control rating: 96%
[5]; [12]
  Test C disease control rating: 36%

## O=C(COC(=O)c1cnn(Cc2ccc(OCC3(C(F)(F)F)OCCO3)cc2)c1)c1ccccc1 [compound 170]
[6]; 10 ppm test suspension, soybean seedlings
  Test A disease control rating: 100%
[2]; 10 ppm test suspension, wheat seedlings
  Test B disease control rating: 0%
[5]; 50 ppm test suspension, grape seedlings
  Test C disease control rating: 100* %

## CCOC(=O)c1cnn(Cc2cccc(O/C=C(\OCC)C(F)(F)F)c2F)c1 [compound 301]
[6]; [13]
  Test A disease control rating: 100%
[2]; [13]
  Test B disease control rating: 0%
[5]; [13]
  Test C disease control rating: 100* %

## CCOC(=O)c1cnn(Cc2ccc(N(C#N)CC(O)(O)C(F)(F)F)cc2)c1 [compound 381]
[6]; [14]
  Test A disease control rating: 25%
[1]; 0 = no control
  Test D disease control rating: 0*** %
[2]; [14]
  Test B disease control rating: 28%
[3]; 0 = no control
  Test E disease control rating: 69*** %

## CC(=O)N1CC(c2ccc(OCC(O)(O)C(F)(F)F)cc2)C1 [compound 384]
[6]; [13]
  Test A disease control rating: 99%
[1]; 0 = no control
  Test D disease control rating: 48*** %
[2]; [13]
  Test B disease control rating: 83%
[3]; 0 = no control
  Test E disease control rating: 87*** %

## COC(COc1ccc(Cn2cc(Br)cn2)cc1)(O[Si](C)(C)C)C(F)(F)F (stereo not drawn) [compound 395]
[6]; Phakopsora pachyrhizi, 50 ppm test suspension, 0 = no control
  pest or weed control at 50 ppm: 100%
[2]; [11]
  pest or weed control at 50 ppm: 100%
[5]; [10]
  pest or weed control at 50 ppm: 100%

## CCO/C(=C\Oc1ccc(Cn2cc(C(=O)NCC(F)F)cn2)cc1)C(F)(F)F [compound 436]
[6]; [13]
  Test A disease control rating: 99%
[2]; [13]
  Test B disease control rating: 0%
[3]; 0 = no control
  Test E disease control rating: 0*** %
[5]; [12]
  Test C disease control rating: 48*** %

## CCOC(=O)c1cnn(COc2ccc(O/C=C(\OCC)C(F)(F)F)c(F)c2)c1 [compound 454]
[6]; Phakopsora pachyrhizi, 10 ppm test suspension, 0 = no control
  pest or weed control at 10 ppm: 100%
[2]; [9]
  pest or weed control at 10 ppm: 0%
[5]; Erysiphe necator, 10 ppm test suspension, 0 = no control
  pest or weed control at 10 ppm: 100%

## CCOC(=COc1ccc(NC(=O)c2ccccc2F)cc1)C(F)(F)F [compound 461]
[6]; [13]
  Test A disease control rating: 0%
[1]; 0 = no control
  Test D disease control rating: 53*** %
[2]; [13]
  Test B disease control rating: 0%
[3]; 0 = no control
  Test E disease control rating: 69*** %
